# Measurements reported in patent US4654348A, “Pyrazolo[4,3-d]pyrimidine derivative, process for its production, antihyperlipidemic agent containing it, its intermediate, and process for the production of the intermediate” (Nissan Chemical Industries Ltd., priority 1984, dated 1987).
# Tests used:
# [1] = system: emulsion-induced hyperlipidemic rats; assay: Test 1: antihyperlipidemic activity in emulsion-induced hyperlipidemic rats (serum Chol, HDL-Chol, liver weight); assay type: in vivo, male S.D. rats; settings: 3 days, vs control; for change in vivo at 300 mg/kg / inhibition in vivo at 300 mg/kg: Rattus norvegicus, po, 72 h, 300 mg/kg/day via stomach tube; for change in vivo at 300 mg/kg: read-out: Increase rate of serum HDL-Chol; for inhibition in vivo at 300 mg/kg: read-out: Reduction rate of serum Chol.; for Degree of hepatomegaly (change rate of the liver weight): liver weight per 100 g body weight, 300 mg/kg/day
# Description: The antihyperlipidemic activity in emulsion-induced hyperlipidemic rats:
# Male S.D. rats weighing 80-90 g (4 weeks old) were used. They were divided into groups of 5 to 6 rats each. The test compounds suspended in 0.5% CMC-Na(carboxymethyl cellulose sodium salt) were given to the rats in a daily dose of 4 ml/kg (i.e. 300 mg/kg of the test compounds) via stomach tube every 10:00 a.m. After 30 min., lipids emulsion having the following composition was orally given to the rats in an amount of 2.5 ml per rat.
# Cholic acid sodium salt 10.0 g
# During the experimental period of 3 days, the rats were fed on a standard commercial diet and water ad libitum. […] The total cholesterol and HDL cholesterol were measured.
# The weight of the liver was measured. To the control group, only the aqueous CMC-Na solution and the lipids emulsion were given.
# The fractionation of lipoproteins was conducted by a dextran sulfate-MgCl2 precipitation method.
# Cholesterol in serum was measured by means of a cholesterol measuring kit (Cholesterol C-Test Wako, manufactured by Wako Junyaku Co., Ltd.), and cholesterol in HDL was measured by means of NC Hi-Set, manufactured by Nippon Chemiphar Co., Ltd.
# Further, the reduction rate of Chol was calculated by the following equation. [formula] where A is the amount of serum Chol (mg/dl) of the control group, and B is the amount of serum Chol (mg/dl) of the group to which the therapeutic agent was administered.
# Likewise, the increase rate of HDL-Chol was calculated by the following equation. [formula] where C is the amount of serum HDL-Chol (mg/dl) of the control group, and D is the amount of serum HDL-Chol (mg/dl) of the group to which the therapeutic agent was administered.
# The degree of hepatomegaly (i.e. the change rate of the liver weight) was calculated by the following equation. [formula] where E is the liver weight (g) per 100 g of the body weight of the control group, and F is the liver weight (g) per 100 g of the body weight of the group to which the therapeutic agent was administered.
# [2] = Test 2: Acute toxicity (mortality after seven days); assay type: in vivo; settings: mouse, in vivo, po, 8000 mg/kg p.o., male ddY mice
# Description: The test compounds suspended in 0.5% CMC-Na were administered p.o. to male ddY mice. The acute toxicity was determined based on the mortality after seven days. In respect of the compounds of Examples 1, 9, 10 and 11 of the present invention, the mortality was 0% even at a dose of as high as 8000 mg/kg by oral administration.
# [3] = in words; cited from earlier work
smiles,measurement,setting,value
"CCCCCCCC/C=C\CCCCCCCCOc1c2ncnc(SCC(=O)OCC)c2nn1C [Example 9, 2-Methyl-3-oleyloxy-7-ethoxycarbonylmethylthio-pyrazolo[4,3-d]pyrimidine]",change in vivo at 300 mg/kg,[1],55%
same,inhibition in vivo at 300 mg/kg,[1],66%
same,Degree of hepatomegaly (change rate of the liver weight),[1],+5%
same,mortality at 168 h,[2],0%
"CCCCC/C=C\C/C=C\CCCCCCCCOc1c2ncnc(SCC(=O)OCC)c2nn1C [Example 10, 2-Methyl-3-linoleyloxy-7-ethoxycarbonylmethylthio-pyrazolo[4,3-d]pyrimidine]",change in vivo at 300 mg/kg,[1],13%
same,inhibition in vivo at 300 mg/kg,[1],76%
same,Degree of hepatomegaly (change rate of the liver weight),[1],+12%
same,mortality at 168 h,[2],0%
"CCCCCCCCCCCCCCCCOc1c2ncnc(SCC(=O)OCC)c2nn1C [Example 1, 2-Methyl-3-n-hexadecyloxy-7-ethoxycarbonylmethylthio-pyrazolo[4,3-d]pyrimidine]",change in vivo at 300 mg/kg,[1],42%
same,inhibition in vivo at 300 mg/kg,[1],58%
same,Degree of hepatomegaly (change rate of the liver weight),[1],+8%
same,mortality at 168 h,[2],0%
"CCCCC/C=C\C/C=C\CCCCCCCCOc1c2ncnc(SCC(=O)OCCCC)c2nn1C [Example 56, 2-Methyl-3-linoleyloxy-7-n-butoxycarbonylmethylthio-pyrazolo[4,3-d]pyrimidine]",inhibition in vivo at 300 mg/kg,[1],60%
"CCCCOCCOCCOc1c2ncnc(SCC(=O)OCC)c2nn1C [Example 39, 2-Methyl-3-(3,6-dioxadecyloxy)-7-ethoxycarbonylmethylthio-pyrazolo[4,3-d]pyrimidine]",inhibition in vivo at 300 mg/kg,[1],11%
"CCCCCCCCCCC/C=C\CCCCCOc1c2ncnc(SCC(=O)OCC)c2nn1C [Example 71, 2-Methyl-3-petroselinyloxy-7-ethoxycarbonylmethylthio-pyrazolo[4,3-d]pyrimidine]",inhibition in vivo at 300 mg/kg,[1],64%
"CCC=CCCOc1c2ncnc(SCC(=O)OCC)c2nn1-c1ccccc1 [Example 47, 2-Phenyl-3-(3-hexenyloxy)-7-ethoxycarbonylmethylthio-pyrazolo[4,3-d]pyrimidine]",inhibition in vivo at 300 mg/kg,[1],10%
"CCCCC/C=C\C/C=C\CCCCCCCCOc1c2ncnc(SCCCCC(=O)OCC)c2nn1C [Example 60, 2-Methyl-3-linoleyloxy-7-[4-(ethoxycarbonyl)butylthio]-pyrazolo[4,3-d]pyrimidine]",inhibition in vivo at 300 mg/kg,[1],22%
O=C(O)c1cccnc1 [nicotinic acid],subsidiary ill effects reported,[3],flashing or gastroenteric troubles
"CCCCCCCCCCCCCCCCOc1c2ncnc(SCCCCCCCCCCCCCCCC)c2nn1C [Example 24, 2-Methyl-3-n-hexadecyloxy-7-n-hexadecylthio-pyrazolo[4,3-d]pyrimidine]",inhibition in vivo at 300 mg/kg,[1],41%
"CCCCC/C=C\C/C=C\CCCCCCCCOc1c2ncnc(SC(C)C(=O)OCC)c2nn1C (stereo not drawn) [Example 58, 2-Methyl-3-linoleyloxy-7-(1-ethoxycarbonylethylthio)-pyrazolo[4,3-d]pyrimidine]",inhibition in vivo at 300 mg/kg,[1],32%
CCCCC/C=C\C/C=C\CCCCCCCCOc1c2ncnc(SCCCCCCCCCCC(=O)OCC)c2nn1C [Example 61],inhibition in vivo at 300 mg/kg,[1],35%
"CCCCCCCCCCCCOc1c2ncnc(SCC(=O)OCC)c2nn1C [Example 2, 2-Methyl-3-n-dodecyloxy-7-ethoxycarbonylmethylthio-pyrazolo[4,3-d]pyrimidine]",inhibition in vivo at 300 mg/kg,[1],36%
"CCCCCCCCOc1c2ncnc(SC(C)(C)C(=O)OCC)c2nn1C [Example 27, 2-Methyl-3-n-octyloxy-7-(1-ethoxycarbonyl1-methyl-ethylthio)-pyrazolo[4,3-d]pyrimidine]",inhibition in vivo at 300 mg/kg,[1],16%
"CCCCC/C=C\C/C=C\CCCCCCCCOc1c2ncnc(SC(C(=O)OCC)C(C)C)c2nn1C (stereo not drawn) [Example 63, 2-Methyl-3-linoleyloxy-7-(1-ethoxycarbonyl-2-methylpropylthio)pyrazolo[4,3-d]pyrimidine]",inhibition in vivo at 300 mg/kg,[1],39%
"CCCCCCC#CCCOc1c2ncnc(SCC(=O)OCC)c2nn1C [Example 74, 2-Methyl-3-(3-decynyloxy)-7-ethoxycarbonylmethylthio-pyrazolo[4,3-d]pyrimidine]",inhibition in vivo at 300 mg/kg,[1],16%
"CCCCCCCCC#CCCCCCCCCOc1c2ncnc(SCC(=O)OCC)c2nn1C [Example 44, 2-Methyl-3-(9-octadecynyloxy)-7-ethoxycarbonylmethylthio-pyrazolo[4,3-d]pyrimidine]",inhibition in vivo at 300 mg/kg,[1],39%
"CCCC=CCCOc1c2ncnc(SCC(=O)OCC)c2nn1-c1ccccc1 [Example 53, 2-Phenyl-3-(3-heptenyloxy)-7-ethoxycarbonylmethylthio-pyrazolo[4,3-d]pyrimidine]",inhibition in vivo at 300 mg/kg,[1],11%
"CCOC(=O)CSc1ncnc2c(OC3CCC(C)CC3)n(C)nc12 (stereo not drawn) [Example 35, 2-Methyl-3-(4-methylcyclohexyloxy)-7-ethoxycarbonylmethylthio-pyrazolo[4,3-d]pyrimidine]",inhibition in vivo at 300 mg/kg,[1],13%
"CCCCCCCCCCCCCCCCOc1c2ncnc(SCCCC(=O)OCC)c2nn1C [Example 17, 2-Methyl-3-n-hexadecyloxy-7-(3-ethoxycarbonylpropylthio)-pyrazolo[4,3-d]pyrimidine]",inhibition in vivo at 300 mg/kg,[1],49%
same,Degree of hepatomegaly (change rate of the liver weight),[1],+5%
"CCCCC/C=C\C/C=C\CCCCCCCCOc1c2ncnc(SCc3ccccc3)c2nn1C [Example 62, 2-Methyl-linoleyloxy-7-benzylthio-pyrazolo[4,3-d]pyrimidine]",inhibition in vivo at 300 mg/kg,[1],17%
"CCCCCCCCCCCCCCCCOc1c2ncnc(SCC(=O)c3ccccc3)c2nn1C [Example 18, 2-Methyl-3-n-hexadecyloxy-7-benzoylmethylthio-pyrazolo[4,3-d]pyrimidine]",change in vivo at 300 mg/kg,[1],42%
same,inhibition in vivo at 300 mg/kg,[1],35%
same,Degree of hepatomegaly (change rate of the liver weight),[1],+4%
"CCCCCCCCOc1c2ncnc(SCC(=O)OCC)c2nn1C [Example 42, 2-Methyl-3-n-octyloxy-7-ethoxycarbonylmethylthio-pyrazolo[4,3-d]pyrimidine]",inhibition in vivo at 300 mg/kg,[1],32%
"CCCCCCCCCCCCCCCCOc1c2ncnc(SCC(=O)OCC)c2nn1-c1ccccc1 [Example 52, 2-Phenyl-3-n-hexadecyloxy-7-ethoxycarbonylmethylthio-pyrazolo[4,3-d]pyrimidine]",inhibition in vivo at 300 mg/kg,[1],30%
"CCCCCCCCCCCCOc1c2ncnc(SC(C)(C)C(=O)OCC)c2nn1C [Example 28, 2-Methyl-3-n-dodecyloxy-7-(1-ethoxycarbonyl-1-methyl-ethylthio)-pyrazolo[4,3-d]pyrimidine]",inhibition in vivo at 300 mg/kg,[1],36%
"CCCCCCCCCCCCCCCCOc1c2ncnc(SCc3ccccc3)c2nn1C [Example 19, 2-Methyl-3-n-hexadecyloxy-7-benzylthio-pyrazolo[4,3-d]pyrimidine]",change in vivo at 300 mg/kg,[1],31%
same,inhibition in vivo at 300 mg/kg,[1],42%
same,Degree of hepatomegaly (change rate of the liver weight),[1],+8%
"C=CCSc1ncnc2c(OCCCCCCCC/C=C\C/C=C\CCCCC)n(C)nc12 [Example 64, 2-Methyl-3-linoleyloxy-7-allylthio-pyrazolo[4,3-d]pyrimidine]",inhibition in vivo at 300 mg/kg,[1],12%
"CCOC(=O)CSc1ncnc2c(OCCOCc3ccc(CC)cc3)n(C)nc12 [Example 37, 2-Methyl-3-[2-(4-ethylbenzyloxy)ethoxy]7-ethoxycarbonylmethylthio-pyrazolo[4,3-d]pyrimidine]",inhibition in vivo at 300 mg/kg,[1],37%
"CCCCC/C=C\C/C=C\CCCCCCCCOc1c2ncnc(SCC(=O)OC)c2nn1C [Example 54, 2-Methyl-3-linoleyloxy-7-methoxycarbonylmethylthio-pyrazolo[4,3-d]pyrimidine]",inhibition in vivo at 300 mg/kg,[1],79%
"CCOC(=O)CSc1ncnc2c(OCCCC(C)=O)n(C)nc12 [Example 46, 2-Methyl-3-(4-oxo-pentyloxy)-7-ethoxycarbonymethylthio-pyrazolo[4,3-d]pyrimidine]",inhibition in vivo at 300 mg/kg,[1],11%
"CCCCC/C=C\C/C=C\CCCCCCCCOc1c2ncnc(SCCCCCC)c2nn1C [Example 55, 2-Methyl-3-linoleyloxy-7-n-hexylthio-pyrazolo[4,3-d]pyrimidine]",inhibition in vivo at 300 mg/kg,[1],58%
CCCCCCCCCCCCCCCCCOc1c2ncnc(SCC(=O)OCC)c2nn1C [Example 5],change in vivo at 300 mg/kg,[1],38%
same,inhibition in vivo at 300 mg/kg,[1],21%
same,Degree of hepatomegaly (change rate of the liver weight),[1],+3%
